Assay results as given in article PMC11784013, “Potassium molybdate blocks APN-dependent coronavirus entry by degrading receptor via PIK3C3-mediated autophagy” (Journal of Virology, 2024).

Key:
[1] = format: in vivo; settings: piglets, oral PM 100 mg/kg
Method: Neonatal pigs spontaneously delivered from sows were confirmed to be negative for TGEV by RT-qPCR and enzyme-linked immunosorbent assay. For the cytotoxicity and pharmacokinetic parameters of the PM, three piglets were orally administered PM (100 mg/kg), and the serum was collected by venipuncture at 0, 1, 2, 4, 6, 8, 10, 12, 16, and 24 h after oral administration of PM for cytotoxicity assays and pharmacokinetic parameter determination. For antiviral animal experiments, piglets were randomly separated into four groups: the mock group ([3]), TGEV group ([3]), TGEV-PM-therapy group ([3]), and TGEV-PM-prevention group ([3]). For the TGEV group, neonatal pigs were orally administered 1.245 × 10^8 PFU TGEV Miller for 24 h. In addition, piglets in the TGEV-PM therapy group were orally infected with 1.245 × 10^8 PFU TGEV Miller and then treated with PM (100 mg/kg). […] The body weights of all piglets were recorded, and anal swabs were collected every 12 h. […]
Fig. S9. […] (A) The serum of piglets orally administered PM were collected at 1, 2, 4, 6, 8, 10, 12, 16 and 24 hours respectively and AST, CK and CREA level in those sera were measured by biochemical parameters. (B) PM concentrations at indicated times in piglets were determined by ICP-MS. […]

[2] = test system: APN; experiment: APN expression in HEK-293T cells (western blot); format: cell-based, human; settings: for APN level, western blot quantified by Image J, relative to no PM (=1): PM 10 mM
Method: Fig. S6. PM degrades human and mouse-derived APN expression. (A and B) HEK-293T cells (A) and […] (B) were treated with PM (10 mM) for 8 h or 16 h respectively, APN expression was measured by western blot. All western blot results were calculated by Image J. All experiments were […]
PM(10mM) - + - + PM(10mM) - + - + […]

[K+].[K+].[O]=[Mo](=[O])([O-])[O-] [PM, potassium molybdate]
safety of the dose [1]: safe concentration
aminotransferase (AST), creatine kinase (CK) and creatinine (CERA) levels ([1]; serum at 0-24 h): did not affect
APN level, western blot quantified by Image J, relative to no PM (=1) ([2]; 8 h): 0.42
APN level, western blot quantified by Image J, relative to no PM (=1) ([2]; 16 h): 0.23
human APN expression ([2]; PM for 8 and 16 h): also decreased human and mouse-derived APN expression
